Laboratory results reported in patent publication US20070243264A1, “Thickened Dilute Hypochlorite” (priority 2006, published 2007).
Like-named read-outs stand apart in the source and are kept apart here.

Experiments:
[1] = Gel formation of hypochlorite thickened with Laponite with added buffers; conditions: 200 ppm hypochlorite thickened with Laponite; for gel formation: acid added, amount not stated
[2] = Effect of thickeners on stability of dilute hypochlorite; type: physicochemical
Protocol: The amount of available halogen oxidant in the composition is determined by placing samples of the composition into about 50 milliliters of distilled water, followed by addition of about 10 milliliters of a 10 weight/weight percent solution of potassium iodide and addition of about 10 milliliters of a 10 volume percent solution of sulfuric acid, the resulting mixture being well stirred. The resulting yellow to brown solution, whose color is the result of oxidation of free iodine ion (I^−) to molecular iodine (I2), was then volumetrically titrated to an essentially colorless endpoint by addition of standardized 0.1 Molar sodium thiosulfate (Na2S2O3) titrant. Calculation then expresses the result as percent of available molecular chlorine (Cl2), that is to say assigning two equivalents per mole of titrated hypohalite oxidant. Stability results are then expressed by repeated assays over time using identically prepared samples resulting from the same composition, normalized to 100 percent representative of the starting available chlorine measured initially.

Compound: OB(O)O [Boric acid]
- gel ([1]; buffer Wt. % 0.21, pH 8.5): Yes
- gel ([1]; buffer Wt. % 0.41, pH 8.4): Yes

Compound: O=C(O)CCC(=O)O [Succinic acid]
- gel ([1]; buffer Wt. % 0.01, pH 9.2): Yes
- gel ([1]; buffer Wt. % 0.04, pH 8.2): Viscous liquid

Compound: CC(=O)O [acetic acid]
- gel formation [1]: Gels

Compound: Cl [hydrochloric acid]
- gel formation [1]: Gels

Compound: CCCCCCCCCCCCOS(=O)(=O)[O-].[Na+] [sodium lauryl sulfate]
- stability of dilute hypochlorite with surfactant, compared with Vangel ES ([2]; comparison with thickeners of Table 4): less stable than Vangel ES®

Compound: CCCCCCCCS(=O)(=O)[O-].[Na+] [sodium octyl sulfonate]
- stability of dilute hypochlorite with surfactant, compared with Vangel ES [2]: less stable than Vangel ES®

Compound: CCCCCCCCCCCCCCCC[N+](C)(C)C.[Cl-] [trimethylC16 ammonium chloride]
- stability of dilute hypochlorite with surfactant, compared with Vangel ES [2]: less stable than Vangel ES®

Compound: sodium alkylbenzenesulfonate
- stability of dilute hypochlorite with surfactant, compared with Vangel ES [2]: less stable than Vangel ES®
